Laboratory results from publication PMC10472371, “Discovery of E2730, a novel selective uncompetitive GAT1 inhibitor, as a candidate for anti‐seizure medication” (Epilepsia Open, 2023).
pKd: −log10 of the molar value. Entries after “also recorded” stand apart in the source; their conditions may differ.

Columns and labels:
[1] = test system: extracellular GABA concentration in mouse hippocampus; assay: Microdialysis: extracellular GABA concentration in mouse hippocampus; format: in vivo
Experimental: A guide cannula was implanted in the left hippocampus (2.7 mm posterior, 3.3 mm left, and 1.8 mm below from the bregma) of ddY mice (male, 5 weeks old). After 5–7 days of recovery, a microdialysis probe (Eicom) was inserted into the left hippocampus through the guide cannula. The tip of the microdialysis probe reached 4.8 mm below the bregma. The next day, the probe was connected to a perfusion tube and perfused with Ringer solution (containing 147.0 mM NaCl, 4.7 mM KCl, 0.6 mM MgSO4, 2.5 mM CaCl2, 5.0 mM HEPES, pH 7.4) at a flow rate of 1.5 μL/min. After ≥160 minutes of perfusion, collection of the perfusate (30 μL/20 min/fraction) was initiated, and 12 fractions per animal were collected for 240 minutes. E2730 (10–100 mg/kg), tiagabine (3–30 mg/kg), or vehicle was orally administered 72 minutes after initiating sample collection. Tiagabine was used as a reference ASM of a non‐competitive GAT1 inhibitor. Perfusate was switched from Ringer solution to high‐potassium Ringer solution (51.7 mM NaCl, 100.0 mM KCl, 0.6 mM MgSO4, 2.5 mM CaCl2, 5.0 mM HEPES, pH 7.4) after 127 minutes following the collection. GABA concentration in each sample was measured by a high‐performance liquid chromatography with tandem mass spectrometry method.

hGAT1 = target: T1, hGAT1 (Homo sapiens, UniProt P30531); assay: [3H]GABA uptake in hGAT1 cells under different GABA concentrations; format: cell-based; conditions: [3H]GABA 0.01-500 μM
T1 construct: expressed in transfected cells; host or cells: HEK293
T1 sequence (P30531 whole entry): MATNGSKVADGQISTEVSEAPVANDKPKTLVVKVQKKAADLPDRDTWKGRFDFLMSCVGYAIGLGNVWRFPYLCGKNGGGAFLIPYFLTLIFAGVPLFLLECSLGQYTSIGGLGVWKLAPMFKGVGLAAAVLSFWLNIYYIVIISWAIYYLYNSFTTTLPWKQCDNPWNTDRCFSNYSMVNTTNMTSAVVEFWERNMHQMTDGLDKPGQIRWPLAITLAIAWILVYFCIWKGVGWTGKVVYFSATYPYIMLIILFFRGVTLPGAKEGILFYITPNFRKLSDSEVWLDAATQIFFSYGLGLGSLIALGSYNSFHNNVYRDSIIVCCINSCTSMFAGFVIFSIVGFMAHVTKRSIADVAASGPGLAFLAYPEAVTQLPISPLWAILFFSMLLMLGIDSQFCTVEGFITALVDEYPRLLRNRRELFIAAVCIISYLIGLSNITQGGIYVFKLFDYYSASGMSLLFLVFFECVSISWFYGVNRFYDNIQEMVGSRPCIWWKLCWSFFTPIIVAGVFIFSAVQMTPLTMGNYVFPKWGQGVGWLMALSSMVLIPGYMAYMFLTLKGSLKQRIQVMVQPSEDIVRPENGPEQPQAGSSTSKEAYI
Experimental: hGAT1 stably expressing HEK293 cells were plated onto 96‐well microtiter plates at a density of 4.0 × 10^4 cells/well in DMEM and incubated overnight at 37°C in a 5% CO2 atmosphere. After washing the cells with assay buffer, E2730 (0.0128–1000 μM), tiagabine (Tokyo Chemical Industry; 0.000256–100 μM), or vehicle was added to the plate in the presence of 1% DMSO. After adding [^3H]GABA (0.01–500 μM), the plate was incubated for 5 minutes at 37°C in a 5% CO2 atmosphere. The radioactivity of the treated cells was assessed following the same method described above.

[2] = target: T2, human brain synaptosomal membranes (Homo sapiens, UniProt P30531); assay: Saturation binding of [3H]E2730 in human brain synaptosomal membranes
T2 construct: from tissue; host or cells: human cerebral cortex; synaptosomal membranes
T2 sequence (P30531 whole entry): as above
Experimental: Synaptosomal membranes were prepared using the whole brain without cerebellum, brainstem, or olfactory bulb from Sprague Dawley rats (male, 7 weeks old) or human cerebral cortex based on Fuks et al.[10] and Hanada et al.[11] Synaptosomal membranes (0.4 mg protein/tube) were incubated with 9.8–5000 nM [^3H]E2730 for 120 minutes at 4°C. Non‐specific binding was defined as the residual binding observed in the presence of 1 mM unlabeled E2730. […] The filters were washed three times with ice‐cold 50 mM Tris–HCl buffer (pH 7.4) and incubated overnight in a scintillator (PerkinElmer), then the radioactivity was measured by a liquid scintillation counter (PerkinElmer).

[3] = test system: brain synaptosomal membranes of GAT1-deficient mice; assay: [3H]E2730 binding in GAT1-deficient mouse brain; conditions: 200 nM [3H]E2730
Experimental: Synaptosomal membrane extract was prepared from homozygous γ‐aminobutyric acid (GABA) transporter 1 (GAT1) KO (Homo), heterozygous GAT1 KO (Hetero), and the littermate wild‐type (WT) mice (male, 10 weeks old) using the same approach as described above. Synaptosomal membrane extract (0.4 mg protein/tube) was incubated with 200 nM [^3H]E2730 for 120 minutes at 4°C. Non‐specific binding was defined as the residual binding observed in the presence of 1 mM unlabeled E2730. The radioactivity of the synaptosome‐bound radioligand was measured in the same way as described above.

[4] = target: T3, rat brain synaptosomal membranes (Rattus norvegicus, UniProt P23978); assay: Competitive displacement of [3H]E2730 binding with ASMs; conditions: 20 nM [3H]E2730; unlabeled E2730 0.1-10 μM; ASMs at 10-3000 μM
T3 construct: Synaptosomal membranes were prepared using the whole brain without cerebellum, brainstem, or olfactory bulb; from tissue; host or cells: rat whole brain without cerebellum, brainstem or olfactory bulb; synaptosomal membranes
Experimental: Unlabeled E2730 (0.1–10 μM) was also assessed to confirm a representative displacement. Non‐specific binding was defined as the residual binding observed in the presence of 1 mM unlabeled E2730. Radioactivity of the synaptosome‐bound radioligand was measured in the same way as described above.

[5] = mouse hippocampus, oral, E2730 10-100 mg/kg, tiagabine 3-30 mg/kg

## NS(=O)(=O)N[C@H]1c2c(F)cc(F)cc2CC1(F)F [E2730]
[1]; E2730 10 mg/kg
  effect on high-potassium-induced extracellular GABA concentration: not statistically significant
[1]; E2730 30 and 100 mg/kg
  effect on high-potassium-induced extracellular GABA concentration: significantly increased
[1]; [5]
  effect on basal extracellular GABA concentration: no significant difference; also recorded: did not increase; also recorded: did not affect
  effect on high-potassium-induced extracellular GABA concentration: significant increase
hGAT1
  dependence of GAT1 inhibition on ambient GABA concentration: positively correlated with the ambient GABA concentration
[2]
  Bmax: 2503 fmol/mg protein
  pKd: 6.15
[3]; heterozygous GAT1 KO (Hetero) mice
  proportion of bound [3H]E2730 relative to WT mice: 54.0%
[3]; homozygous GAT1 KO (Homo) mice
  proportion of bound [3H]E2730 relative to WT mice: 8.0%
[4]
  displacement of [3H]E2730 binding: displaced the radiolabeled [^3H]E2730 in a concentration‐dependent manner
